Experimental data published in patent US12194140B2, “Compositions for topical treatment of microbial infections” (Hennepin Life Sciences, priority 2012, dated 2025).

Legend:
Staphylococcus aureus = assay: Spectrum of antibacterial activity of GML; format: cell-based; details: optimal growth conditions; 54 strains tested
Streptococcus agalactiae = assay: Spectrum of antibacterial activity of GML; format: cell-based; details: optimal growth conditions; 3 strains tested
Group C Streptococcus = assay: Spectrum of antibacterial activity of GML; format: cell-based; details: optimal growth conditions; 1 strain tested
Group F Streptococcus = assay: Spectrum of antibacterial activity of GML; format: cell-based; details: optimal growth conditions; 1 strain tested
[1] = system: Streptococcus pneumoniae Serotype III; assay: Spectrum of antibacterial activity of GML; format: cell-based; details: optimal growth conditions; 2 strains tested
Enterococcus faecalis = assay: Spectrum of antibacterial activity of GML; format: cell-based; details: optimal growth conditions; 1 strain tested
[2] = system: Peptostreptococcus species; assay: Spectrum of antibacterial activity of GML; format: cell-based; details: optimal growth conditions; 1 strain tested
Neisseria gonorrhoeae = assay: Spectrum of antibacterial activity of GML; format: cell-based; details: optimal growth conditions; 1 strain tested
Gardnerella vaginalis = assay: Spectrum of antibacterial activity of GML; format: cell-based; details: optimal growth conditions; 2 strains tested
[3] = system: Prevotella melaninogenica; assay: Spectrum of antibacterial activity of GML; format: cell-based; details: optimal growth conditions; 1 strain tested
Enterobacter aerogenes = assay: Spectrum of antibacterial activity of GML; format: cell-based; details: optimal growth conditions; 1 strain tested
Proteus vulgaris = assay: Spectrum of antibacterial activity of GML; format: cell-based; details: optimal growth conditions; 1 strain tested
Shigella sonnei = format: cell-based
Klebsiella pneunoniae = assay: Spectrum of antibacterial activity of GML; format: cell-based; details: optimal growth conditions; 1 strain tested
S. aureus 128 (TSST-1) = format: cell-based
[4] = system: S. aureus strains MN8, MNWH, MW2; assay: Biofilm formation in 96 well microtiter plates; format: cell-based
H. influenzae biofilm = assay: Treatment of previously formed biofilms; format: cell-based; details: 48 hour biofilm; 500 μg/mL GML for 60 minutes at 37° C.
Experimental: Supernatants were removed and bactericidal activity was determined by measuring CFU/mL (FIG. 9, left; # significant reduction in mean absorbance at 595 nm compared to no GML control, p<0.01). Wells were then washed and stained with crystal violet as described above.

S. aureus MN8 = assay: Antibacterial activity of GML after pre-treatment with sterile culture fluid; format: cell-based; details: 24 hour assay
S. aureus = assay: Decolonization of anterior nares; format: in vivo, human; details: 5% w/v GML in non-aqueous gel
Experimental: A study was undertaken to assess the ability of GML (5% w/v), formulated in a non-aqueous gel, to decolonize the respiratory tract in humans, and to decolonize contaminated surgical incision sites in experimental rabbits.
Three human subjects underwent swabs of the anterior nares in order to assess whether GML was capable of decolonizing the respiratory tract. […] The swabs were rotated around each nare up to the nasal bone 3 times. Colony-forming units of microbes from swabs were determined by plate counts on blood agar and mannitol salt agar. The anterior nares were then treated in the same way with swabs that had been dipped one time in GML gel. The anterior nares of each participant were swabbed at designated time periods for up to 24 hours, and swabs were cultured for S. aureus and coagulase-negative staphylococci.

[5] = system: coagulase-negative staphylococci; assay: Decolonization of anterior nares; format: in vivo, human; details: 5% w/v GML in non-aqueous gel
oral aerobic bacteria = assay: Decolonization of teeth and gum lines; format: in vivo, human; details: 5% GML gel on teeth and gum lines; thirty minutes after treatment
Text: Human volunteers were swabbed with a PBS-saturated swab across the teeth and gum lines on the left side of the mouth and tested for CFU/mL of total bacteria subsequently grown on blood agar plates. The same individuals were then swabbed with GML gel by swabbing the gel across the teeth and gum lines on the right side of the mouth. Enough gel was used to coat the entire surface area of the teeth and gum lines. Thirty minutes after treatment, the participants were swabbed with PBS-saturated swabs on the right side and total CFU/mL were determined. […] Bacterial counts on both sides of the teeth and gum lines were presumed to be approximately equal, and a pre-test swab confirmed that this was the case.

S. aureus strain MN8 = assay: Decolonization of contaminated surgical incision sites; format: in vivo, New Zealand white rabbits; details: GML 5% w/v non-aqueous gel swabbed

Substance: Glycerol monolaurate [GML]
- Average Bactericidal Concentration of GML (Staphylococcus aureus): 300 µg/mL
- Average Bactericidal Concentration of GML (Streptococcus agalactiae): 30 µg/mL
- Average Bactericidal Concentration of GML (Group C Streptococcus): 30 µg/mL
- Average Bactericidal Concentration of GML (Group F Streptococcus): 20 µg/mL
- Average Bactericidal Concentration of GML [1]: 10 µg/mL
- Average Bactericidal Concentration of GML (Enterococcus faecalis): 100 µg/mL
- Average Bactericidal Concentration of GML [2]: 1 µg/mL
- Average Bactericidal Concentration of GML (Neisseria gonorrhoeae): 20 µg/mL
- Average Bactericidal Concentration of GML (Gardnerella vaginalis): 10 µg/mL
- Average Bactericidal Concentration of GML [3]: 50 µg/mL
- Average Bactericidal Concentration of GML (Enterobacter aerogenes): Not Susceptible
- Average Bactericidal Concentration of GML (Proteus vulgaris): Not Susceptible
- Average Bactericidal Concentration of GML (Shigella sonnei): Not Susceptible
- Average Bactericidal Concentration of GML (Klebsiella pneunoniae): Not Susceptible
- TSST-1 in tampon sacs (Western immunoblot) (S. aureus 128 (TSST-1)): not detected
- fold lower GML concentration inhibiting biofilm formation (crystal violet, absorbance 595 nm) than necessary to inhibit bacterial growth ([4]; 24 or 48 hours): 10 fold
- GML concentration at which growth was completely inhibited (CFU/mL) ([4]; all three strains, 24 and 48 hours): 500 µg/mL
- bactericidal activity on previously formed biofilm (CFU/mL) (H. influenzae biofilm): killed
- biofilm material attached to the wells (crystal violet staining) (H. influenzae biofilm): nearly completely removed biofilm material
- antibacterial activity of GML after pre-incubation (S. aureus MN8; pre-incubated overnight with sterile culture fluid from S. aureus MN8): eliminated the antibacterial activity
- antibacterial activity of GML after pre-incubation (S. aureus MN8; pre-incubated overnight with sterile culture fluid from S. pyogenes): did not affect
- S. aureus counts in both nares after treatment (S. aureus; swab, three subjects, all time-points up to 24 hour): 0 CFU/mL
- S. aureus counts over 3 day test period (S. aureus; one subject): 0
- coagulase-negative staphylococcal counts in both nares after treatment ([5]; swab, three subjects, 4 hours or more up to 24 hour): significantly (p<0.05) reduced
- coagulase-negative staphylococci in right nare after 3 days ([5]; one subject, initially 560): 8 CFU/mL
- coagulase-negative staphylococci in left nare after 3 days ([5]; one subject, initially 880): 0 CFU/mL
- reduction in CFUs between pretreatment and post-treatment swabs (oral aerobic bacteria): > 5 log
- S. aureus CFU/mL at surgical incision sites (S. aureus strain MN8; 24 hour time-point, PBS control 8.8 log CFU/mL): no CPUs were detectable
- inflammation at the surgical site (redness) (S. aureus strain MN8; 24 hours, versus PBS): less inflammation
